Assay [1] concerns the target 72 kDa type IV collagenase (Homo sapiens, UniProt P08253). The assay is described as follows: Inhibition of matrix metalloprotease-2.
Assay [2] deals with Matrix metalloproteinase-9 (Homo sapiens, UniProt P14780). The assay is described as follows: Inhibition of human matrix metalloprotease-9.
A further assay has as its target Stromelysin-1 (Homo sapiens, UniProt P08254). The assay is described as follows: Inhibition of matrix metalloprotease-3.
The target in the next assay is Collagenase 3 (Homo sapiens, UniProt P45452). Put plainly: Inhibition of matrix metalloprotease-13.
Another assay deals with T1, Interstitial collagenase (Homo sapiens, UniProt P03956).
T1 sequence (P03956 whole entry): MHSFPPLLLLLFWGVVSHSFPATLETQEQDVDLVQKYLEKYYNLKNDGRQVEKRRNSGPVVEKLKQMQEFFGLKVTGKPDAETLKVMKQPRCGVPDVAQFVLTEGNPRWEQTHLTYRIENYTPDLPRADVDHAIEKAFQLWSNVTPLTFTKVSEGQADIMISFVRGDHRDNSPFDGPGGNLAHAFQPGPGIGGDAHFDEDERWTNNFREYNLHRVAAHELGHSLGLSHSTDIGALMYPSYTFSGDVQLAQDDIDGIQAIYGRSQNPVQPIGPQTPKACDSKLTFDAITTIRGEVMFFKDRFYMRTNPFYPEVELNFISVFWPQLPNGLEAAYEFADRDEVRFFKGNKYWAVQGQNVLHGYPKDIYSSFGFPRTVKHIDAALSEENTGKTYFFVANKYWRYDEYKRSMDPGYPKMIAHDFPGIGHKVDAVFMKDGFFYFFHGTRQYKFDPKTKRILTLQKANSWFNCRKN
The assay is described as follows: Inhibition of human matrix metalloprotease-1.

The source of these data is ChEMBL document CHEMBL1134592, “Design and synthesis of matrix metalloproteinase inhibitors guided by molecular modeling. Picking the S(1) pocket using conformationally constrained inhibitors” (J Med Chem, 2001).

Molecules are shown by their SMILES.

Chain of 72 kDa type IV collagenase (P08253 whole entry): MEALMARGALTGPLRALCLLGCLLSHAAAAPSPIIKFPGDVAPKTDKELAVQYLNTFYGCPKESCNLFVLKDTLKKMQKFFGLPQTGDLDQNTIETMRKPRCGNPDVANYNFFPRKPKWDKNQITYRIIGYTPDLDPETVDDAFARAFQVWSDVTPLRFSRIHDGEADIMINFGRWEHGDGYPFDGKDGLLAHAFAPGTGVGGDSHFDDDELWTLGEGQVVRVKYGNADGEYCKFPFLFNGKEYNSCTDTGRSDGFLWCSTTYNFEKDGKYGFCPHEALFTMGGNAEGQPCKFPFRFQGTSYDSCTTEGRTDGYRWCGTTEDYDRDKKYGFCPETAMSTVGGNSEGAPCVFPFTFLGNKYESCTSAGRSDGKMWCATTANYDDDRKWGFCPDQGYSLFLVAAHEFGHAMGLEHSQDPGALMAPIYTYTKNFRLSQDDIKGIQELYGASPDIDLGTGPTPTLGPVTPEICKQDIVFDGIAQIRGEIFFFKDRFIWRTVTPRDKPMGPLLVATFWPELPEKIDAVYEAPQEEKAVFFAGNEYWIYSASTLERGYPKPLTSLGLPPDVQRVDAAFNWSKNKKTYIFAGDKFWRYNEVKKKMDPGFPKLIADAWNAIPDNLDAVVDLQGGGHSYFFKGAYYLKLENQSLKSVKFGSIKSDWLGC
Chain of Matrix metalloproteinase-9 (P14780 whole entry): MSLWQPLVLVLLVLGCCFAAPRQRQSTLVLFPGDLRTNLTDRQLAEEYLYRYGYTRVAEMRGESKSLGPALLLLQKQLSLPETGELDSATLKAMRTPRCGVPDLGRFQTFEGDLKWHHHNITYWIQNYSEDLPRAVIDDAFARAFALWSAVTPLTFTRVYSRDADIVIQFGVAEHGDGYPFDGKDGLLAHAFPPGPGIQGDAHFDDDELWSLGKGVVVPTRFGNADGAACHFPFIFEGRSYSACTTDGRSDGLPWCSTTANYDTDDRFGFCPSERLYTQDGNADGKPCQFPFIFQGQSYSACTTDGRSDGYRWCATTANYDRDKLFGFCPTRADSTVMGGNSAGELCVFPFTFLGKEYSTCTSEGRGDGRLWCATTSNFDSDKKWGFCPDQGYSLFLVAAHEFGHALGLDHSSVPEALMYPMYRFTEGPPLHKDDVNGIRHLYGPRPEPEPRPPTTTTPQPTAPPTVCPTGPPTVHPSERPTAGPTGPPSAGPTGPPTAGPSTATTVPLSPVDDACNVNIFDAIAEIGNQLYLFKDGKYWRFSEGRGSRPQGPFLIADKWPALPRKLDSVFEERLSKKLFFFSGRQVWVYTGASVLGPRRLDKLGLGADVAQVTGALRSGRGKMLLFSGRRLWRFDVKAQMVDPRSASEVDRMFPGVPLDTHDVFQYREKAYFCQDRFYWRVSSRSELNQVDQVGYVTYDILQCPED
Chain of Stromelysin-1 (P08254 whole entry): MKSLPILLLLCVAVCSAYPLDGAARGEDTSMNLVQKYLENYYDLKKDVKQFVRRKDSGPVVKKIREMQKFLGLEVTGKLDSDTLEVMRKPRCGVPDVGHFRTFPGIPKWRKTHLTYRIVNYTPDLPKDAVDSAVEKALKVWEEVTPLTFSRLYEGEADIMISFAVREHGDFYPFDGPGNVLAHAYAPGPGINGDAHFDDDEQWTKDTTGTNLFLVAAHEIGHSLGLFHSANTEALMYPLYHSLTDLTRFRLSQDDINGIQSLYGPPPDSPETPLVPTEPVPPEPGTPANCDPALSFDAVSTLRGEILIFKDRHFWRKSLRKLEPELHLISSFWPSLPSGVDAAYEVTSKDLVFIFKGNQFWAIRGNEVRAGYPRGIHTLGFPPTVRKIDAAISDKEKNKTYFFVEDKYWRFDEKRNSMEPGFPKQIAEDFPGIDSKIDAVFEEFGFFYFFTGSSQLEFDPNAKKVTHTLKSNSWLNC

By IC50 is commonly meant the point on the concentration scale where inhibition reaches its midpoint. Lower therefore signals greater potency. Take `COc1ccc(S(=O)(=O)N2CC(C)(C)C(CSCc3ccccc3)[C@@H]2C(=O)NO)cc1` (some centres not stated): the half-inhibitory concentration (IC50) in assay [1] was determined as 1.64 nM; in assay [2], 0.9 nM; against Stromelysin-1, 6.7 nM; at Collagenase 3, 5.5 nM.

`COc1ccc(S(=O)(=O)N2CC(C)(C)C([C@H](O)CSc3ccccc3)[C@@H]2C(=O)NO)cc1` (some centres not stated): the IC50 came to 2.5 nM in assay [1]; 0.9 nM in assay [2]; 3 nM against Stromelysin-1; 3.7 nM against Collagenase 3; 117 nM against Interstitial collagenase.

Turning to `COc1ccc(S(=O)(=O)N2CC(C)(C)C(CO)[C@@H]2C(=O)NO)cc1` (some centres not stated), the 50% inhibitory concentration (IC50) in assay [1] amounted to 143 nM; in assay [2], 50 nM; on Stromelysin-1, 136 nM; at Collagenase 3 it was 218 nM.

With `COc1ccc(S(=O)(=O)N2CC(C)(C)C(COCc3ccccc3)[C@@H]2C(=O)NO)cc1` (some centres not stated), the IC50 in assay [1] came to 32 nM; in assay [2], 9.2 nM; against Stromelysin-1, 10.1 nM; on Collagenase 3, 44.2 nM; against Interstitial collagenase, 1620 nM.

Turning to `COc1ccc(S(=O)(=O)N(CC(C)C)[C@H](CCSCc2ccccc2)C(=O)NO)cc1`, the half-inhibitory concentration (IC50) in assay [1] is 0.7 nM; in assay [2] it was 2.5 nM; against Stromelysin-1 it was 0.7 nM; at Collagenase 3, 12 nM; against Interstitial collagenase it was 104 nM.

In the case of `COc1ccc(S(=O)(=O)N2CC(C)(C)C([C@@H](O)CSc3ccccc3)[C@@H]2C(=O)NO)cc1` (some centres not stated), the IC50 was determined as 16.2 nM in assay [1]; 3.6 nM in assay [2]; 18.7 nM against Stromelysin-1; 18.1 nM against Collagenase 3; 301 nM against Interstitial collagenase.

In the case of `COc1ccc(CSCC2[C@H](C(=O)NO)N(S(=O)(=O)c3ccc(OC)cc3)CC2(C)C)cc1` (some centres not stated), the IC50 in assay [1] was 4.6 nM; in assay [2], 4.4 nM; against Stromelysin-1 it was 16.7 nM; against Collagenase 3 it was 22.3 nM; on Interstitial collagenase, 458 nM.

As for `COc1ccc(S(=O)(=O)N2CC(C)(C)C(CSCCc3ccccc3)[C@@H]2C(=O)NO)cc1` (some centres not stated), the IC50 in assay [1] was found to be 15.4 nM; in assay [2], 2.8 nM; against Stromelysin-1, 6.5 nM; against Collagenase 3, 17 nM; at Interstitial collagenase it was 654 nM.

On to `C=CC1[C@H](C(=O)NO)N(S(=O)(=O)c2ccc(OC)cc2)CC1(C)C` (some centres not stated), for which the IC50 in assay [1] was 441 nM; in assay [2] it was 138 nM; on Stromelysin-1, 293 nM; against Collagenase 3, 519 nM.
